Test results from patent US20060160906A1, “Polyamine analogs as therapeutic agents for ocular diseases” (priority 2004, published 2006).
Entries after “also recorded” stand apart in the source; their conditions may differ.

Assays:
[1] = system: choroidal neovascularization (CNV) at Bruch's membrane rupture sites; assay: Mouse model of laser-induced choroidal neovascularization (rupture of Bruch's membrane), CNV area on choroidal flat mounts; format: in vivo, C57BL/6J mice; conditions: for amount of established CNV on day 14 vs vehicle and day 7 baseline (regression): single periocular injection at day 7; for amount of CNV on day 14 vs vehicle (suppression): single periocular injection at time of rupture
[2] = system: retinal neovascularization; assay: Oxygen-induced ischemic retinopathy, retinal neovascularization; format: in vivo, neonatal C57BL/6 mice; conditions: 100 μg CGC-11144, 1 mg CGC-11047, 750 μg CGC-11093; for amount of retinal neovascularization at P20 vs vehicle (regression): daily periocular injections P17 to P20; for amount of retinal neovascularization at P17 vs vehicle (suppression): periocular injection at P12
Protocol: Ischemic retinopathy can be produced in neonatal C57BL/6 mice as described (Smith, L. E et al., Invest. Opthalmol. Vis. Sci. 35: 101-111 (1994)) and serves as a model for retinopathy of prematurity (ROP). Post-natal day 7 (P7) mice and their mothers were placed in an airtight incubator and exposed to an atmosphere of 75±3% oxygen for 5 days. Incubator temperature was maintained at 23±2° C. and oxygen was continuously monitored with a PROOX model 110 oxygen controller (Reming Bioinstruments Co., Redfield, N.Y.). At post-natal day 12, mice were placed back in room air and were given a periocular injection of 3 μl containing 100 μg of CGC-11144 (n=4), 1 mg of CGC-11047 (n=4), 750 μg of CGC-11093 (n=4) or vehicle. On post-natal day 17 (P17) the treated and control mice were euthanized and the amount of retinal neovascularization was measured.
For measurement of retinal neovascularization, eyes were removed and fixed in 2% paraformaldehyde in phosphate buffered saline (PBS) for one hour and rinsed twice in 25% sucrose in PBS. Specimens were incubated in 25% sucrose in PBS overnight and embedded in OCT compound (Miles Diagnostics, Elkhart, Ind.),). 10 μm frozen sections were post-fixed for 15 minutes in 0.5% glutaraldehyde in PBS and washed in PBS. Sections were also histochemically stained with biotinylated Griffonia simplicifolia lectin B4 (GSA, Vector Laboratories, Burlingame, Calif.), which selectively binds to vascular cells. Slides were incubated in methanol/H2O2 for 10 minutes at 4° C., washed with 0.05 M Tris-buffered saline, pH 7.6 (TBS), and incubated for 30 minutes in 10% normal porcine serum. Slides were incubated 2 hours at room temperature with biotinylated GSA and after rinsing with 0.05M TBS, they were incubated with avidin coupled to peroxidase (Vector Laboratories, Burlingame, Calif.) for 30 minutes at room temperature. After being washed for 10 minutes with 0.05M TBS, slides were incubated with diaminobenzidine (Research Genetics, Huntsville, Ala.) to give a brown reaction product.
To perform quantitative assessments, 10 μm frozen serial sections were cut from the iris root on one side of the eye to the iris root on the opposite side of the eye and every tenth section was stained with GSA. Retinas were examined with an Axioskop microscope and images were digitized using a 3 CCD color video camera and a frame grabber. Image-Pro Plus software was used to delineate GSA-stained vascular cells above the internal limiting membrane and the total area of staining was measured.
To investigate the effect of these agents on regression of retinal neovascularization, ischemic retinopathy was induced and left untreated until P17, when the baseline amount of retinal neovascularization was measured in one group of mice. From post-natal days 17 to 20 (P17 to P20) the remainder of the mice were given daily periocular injections of 100 μg of CGC-11144 (n=4), 1 mg of CGC-11047 (n=4), 750 μg of CGC-11093 (n=4) or vehicle. On P20 the mice were euthanized and the amount of retinal neovascularization in the treated and control mice was measured as described above.

[3] = system: subretinal neovascularization; assay: Rhodopsin/VEGF transgenic mice, subretinal neovascularization; format: in vivo, rhodopsin/VEGF transgenic mice (V6 mice); conditions: periocular injection at P7, measured P21; 100 μg CGC-11144, 1 mg CGC-11047, 750 μg CGC-11093
Source text: Transgenic mice (V6 mice) in which the rhodopsin promoter drives expression of VEGF165 in photoreceptors have onset of VEGF expression at post-natal day 7 (P7) and soon after begin to develop neovascularization originating from the deep capillary bed that grows through the photoreceptor layer into the subretinal space. (Okamoto N et al., Amer. J. Pathol. 151: 281-91 (1997); Tobe T et al., Invest. Ophthalmol. Vis. Sci. 39: 180-188 (1998)). Hemizygous transgene positive mice were given a periocular injection of 100 μg of CGC-11144 (n=3), 1 mg of CGC-11047 (n=3), 750 μg of CGC-11093 (n=3) or vehicle (n=7) at P7. At post-natal day 21 (P21), mice were euthanized and the amount of subretinal neovascularization was quantified as previously described (Tobe, ibid.). Briefly, mice were anesthetized, perfused with fluorescein-labeled dextran, and the number of neovascular lesions on the outer surface of the retina and their total area were measured on retinal flat mounts by image analysis as described in Example 1.

[4] = 2 mg CGC-11047, 1.5 mg CGC-11093
[5] = 200 μg CGC-11144, 2 mg CGC-11047, 1.5 mg CGC-11093
[6] = single periocular injection one week prior to rupture, 200 μg CGC-11144, 2 mg CGC-11047, 1.5 mg CGC-11093
[7] = single periocular injection three weeks before laser, 2 mg CGC-11047, 1.5 mg CGC-11093
[8] = single periocular injection two weeks prior to rupture, 200 μg CGC-11144, 2 mg CGC-11047, 1.5 mg CGC-11093

CCNCCCCNCC1CC1CNCCCCNCC (centres unmarked) [CGC-11093]
amount of established CNV on day 14 vs vehicle and day 7 baseline (regression) [1, 4]: less CNV than those treated with vehicle and less than the baseline amount of CNV
amount of CNV on day 14 vs vehicle (suppression) [1, 5]: significantly reduced the amount of CNV
amount of CNV vs vehicle (duration of effect) [1, 6]: significant reduction of the amount of CNV
amount of CNV vs vehicle (duration of effect) [1, 7]: no significant effect
amount of CNV vs vehicle (duration of effect) [1, 8]: significantly smaller amounts of CNV
amount of retinal neovascularization at P20 vs vehicle (regression) [2]: significantly less neovascularization
amount of retinal neovascularization at P17 vs vehicle (suppression) [2]: significantly less
subretinal neovascularization vs vehicle [3]: significantly less subretinal neovascularization

NCCCC(N)(C(=O)O)C(F)F (racemic) [DFMO, D,L-α-difluoromethyl-omithine, reference compound]
area of CNV vs day 7 baseline and vehicle fellow eyes (regression) ([1]; daily periocular injections days 7 to 14, 200 μg CGC-11144, 100 μg DFMO, or both): significant reduction in the area of CNV; also recorded: significantly less

CCNCCCNC/C=C\CNCCCNCC [CGC-11047]
amount of established CNV on day 14 vs vehicle and day 7 baseline (regression) [1, 4]: less CNV than those treated with vehicle and less than the baseline amount of CNV
amount of CNV on day 14 vs vehicle (suppression) [1, 5]: significantly reduced the amount of CNV
amount of CNV vs vehicle (duration of effect) [1, 6]: significant reduction of the amount of CNV
amount of CNV vs vehicle (duration of effect) [1, 7]: no significant effect
amount of CNV vs vehicle (duration of effect) [1, 8]: significantly smaller amounts of CNV
amount of retinal neovascularization at P20 vs vehicle (regression) [2]: significantly less neovascularization
amount of retinal neovascularization at P17 vs vehicle (suppression) [2]: significantly less
subretinal neovascularization vs vehicle [3]: significantly less subretinal neovascularization
